Measurements reported in patent US6890954B1, “Uses of 2-bromopalmitate in the treatment of autoimmune disease” (priority 1999, dated 2005).

Experiments:
Format in all cases: cell-based
[1] = test system: Fyn(16)-eGFP; test: Localization of Fyn(16)-eGFP in COS-1 cells (fluorescence microscopy, P100/S100 fractionation)
Protocol: COS-1 cells were transfected with a Fyn(16)-eGFP construct (12) and seeded onto 25-mm glass coverslips 2 days prior to the experiment. Cells were treated overnight with or without 2 bromopalmitate as described above. Plates were washed with PBS and coverslips were mounted onto glass slides in PBS and observed with a 40× and 100×oil immersion lens on a Zeiss Axiophot 2 microscope and photographed with Kodak TMAX 400.
To investigate the effect of 2-bromopalmitate on the intracellular localization of Fyn more precisely, COS-1 cells expressing a Fyn(16)-eGFP construct were examined by immunofluorescence. This construct contains the first 16 amino acids of Fyn fused in frame to eGFP; the chimera is targeted to the plasma membrane and detergent resistant microdomains (12). Cells were cultured with no treatment, with 2-bromopalmitate or with 2-hydroxymyristate, a known myristoylation inhibitor (40,41), as described above, and were examined live by fluorescence microscopy.
Analysis of the subcellular localization of Fyn(16)-eGFP in the presence of 2-bromopalmitate and 2-hydroxymyristate was performed as described above for steady-state Fyn. As depicted in FIG. 2B, in the absence of treatment, 80% of Fyn(16)-eGFP Fyn was membrane bound, whereas in cells treated with 2-bromopalmitate and 2-hydroxymyristate, 65% and 78% of Fyn(16)-eGFP were cytosolic, respectively.

[2] = target: T1, Fyn (Homo sapiens, UniProt P06241); test: Fyn fatty acylation (IC13/IC16 incorporation) in transfected COS-1 cells; details: for effect of palmitate analog on Fyn fatty acylation: COS-1 cells, data not shown
T1 construct: expressed in transfected cells; host or cells: COS-1
T1 sequence (P06241 whole entry, species assumed): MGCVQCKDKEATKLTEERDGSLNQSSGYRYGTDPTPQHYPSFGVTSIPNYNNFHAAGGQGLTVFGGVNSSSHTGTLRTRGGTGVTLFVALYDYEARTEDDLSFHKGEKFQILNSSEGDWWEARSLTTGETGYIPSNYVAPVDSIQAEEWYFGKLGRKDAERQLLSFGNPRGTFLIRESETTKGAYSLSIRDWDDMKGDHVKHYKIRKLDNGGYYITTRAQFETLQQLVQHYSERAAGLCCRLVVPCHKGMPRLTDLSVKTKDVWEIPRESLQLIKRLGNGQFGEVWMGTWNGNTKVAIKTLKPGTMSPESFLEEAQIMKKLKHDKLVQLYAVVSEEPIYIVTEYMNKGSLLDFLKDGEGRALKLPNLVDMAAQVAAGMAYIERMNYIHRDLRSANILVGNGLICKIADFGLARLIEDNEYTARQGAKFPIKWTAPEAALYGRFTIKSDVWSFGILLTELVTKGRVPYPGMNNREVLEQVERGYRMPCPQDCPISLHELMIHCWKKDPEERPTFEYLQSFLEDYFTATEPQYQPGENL
Protocol: The syntheses of 13-[^125I]-iodotridecanoic acid (IC13)or 16-[^125I]-iodohexanoic acid (IC16) were carried out as described previously (39). Cell labeling was carried out as described (12,13) with modifications. Briefly, each 60 mm plate of Fyn transfected COS-1 cells was incubated O/N in DMEM containing 2.5% FBS, 0.5% defatted BSA (Sigma) with or without 100 μM 2-bromopalmitate or 50 μM polyunsaturated fatty acid. Prior to labeling, the cells were incubated for 1 hr with 1 ml of DMEM containing 2% dialyzed FBS, then labeled for 4 hours with 25-50 μCi IC13 or IC16 in DMEM containing 2% dialyzed FBS, 0.5% defatted BSA with or without 2-bromopalmitate or polyunsaturated fatty acid. Labeled cells were washed three times with cold STE (100 mM NaCl, 10 mM Tris pH 7.4, 1 mM EDTA) and lysed in 0.6 ml of cold RIPA buffer containing protease inhibitors (10 μg/ml each of benzamidine, AEBSF, TPCK and TLCK, 1.5 μg/ml each of Leupeptin, Pepstatin A and Aprotinin). Lysates were clarified at 100,000×g for 15 min at 4° C. in a Beckman TL-100 ultracentrifuge. Lysates were immunoprecipitated with rabbit anti-Fyn antibody and protein A-agarose. Immunoprecipitates were washed three times with cold RIPA buffer and suspended in 1× sample buffer containing 100 mM dithiothreitol and subjected to SDS-PAGE. Gels were dried between cellophane and analyzed by phosphorimaging after 12-36 hours exposure. Experiments in Jurkat T cells were carried out according to the above protocol using 2×10^7 cells per experiment, and reducing the incubation time with 2-bromopalmitate to 3-4 hours.
A number of palmitic acid analogs were screened for their ability to inhibit Fyn palmitoylation. COS-1 cells were transfected with cDNA encoding Fyn. Three days after transfection, the cells were labeled with either [^35S]-methionine, 13-[^125I]-iodotridecanoic acid (IC13), an iodinated myristate analog, or 16-[^125I]-iodohexanoic acid (IC16), an iodinated palmitic acid analog (39), in the presence or absence of nonradioactive palmitate analogs. Cells were lysed, immunoprecipitated with anti-Fyn antibody, and analyzed by SDS-PAGE and phosphorimaging. […] When normalized for total protein levels, 70% of Fyn myristoylation and over 90% of Fyn palmitoylation was inhibited in the presence of 2-bromopalmitate. Treatment of cells with other analogs, including 2-hydroxypalmitate, palmitoleic acid and 16-hydroxypalmitate had no effect (data not shown).
To test this hypothesis, Fyn transfected COS-1 cells were incubated O/N with or without 50 μM arachidonic acid (20:4) or eicosapentaenoic acid (20:5), then labeled with IC13 or IC16. Total protein levels were monitored by immunoblotting aliquots of each sample with anti-Fyn antibody (FIG. 8A, lower panel).

[3] = test system: Fyn; test: DRM localization of Fyn in PUFA-treated COS-1 cells (sucrose gradient); details: COS-1, 50 μM PUFA; untreated 30%
Protocol: For isolation of detergent resistant microdomains in PUFA-treated COS-1 cells, a confluent 100 mm plate of COS-1 cells transiently transfected with Fyn cDNA was washed with S-IE and subjected to the same procedure described above. Fractions were analyzed for the presence of Fyn by immunoblotting.
Whether 20:4 and 20:5 inhibited localization of Fyn to detergent resistant microdomains in COS-1 cells was examined next. Cells were treated with or without polyunsaturated fatty acids as described above and layered on the bottom of a sucrose gradient as described above. Fractions were collected and analyzed by immunoblotting with anti-Fyn antibody.

| SMILES | effect of palmitate analog on Fyn fatty acylation [2] | inhibition of incorporation of IC16 into Fyn (palmitoylation) ([2]; COS-1, 50 μM PUFA overnight) | Fyn found in detergent resistant microdomains [3] | other results |
| --- | --- | --- | --- | --- |
| CCCCCCCCCCCCC(O)C(=O)O (stereo not shown) [2-hydroxymyristate, reference compound] |  |  |  | Fyn(16)-eGFP cytosolic ([1]; COS-1, 100 μM overnight, P100/S100, untreated 80% membrane bound): 78%; Fyn(16)-eGFP distribution by fluorescence microscopy ([1]; COS-1 live cells, 100 μM overnight): reduced plasma membrane staining |
| O=C(O)CCCCCCCCCCCCCCCO [16-hydroxypalmitate] | no effect |  |  |  |
| CC/C=C\C/C=C\C/C=C\C/C=C\C/C=C\CCCC(=O)O [eicosapentaenoic acid] |  | 65% | 5.3% |  |

Further lines, with some results ahead:

| effect of palmitate analog on Fyn fatty acylation [2] | inhibition of incorporation of IC16 into Fyn (palmitoylation) ([2]; COS-1, 50 μM PUFA overnight) | SMILES | Fyn found in detergent resistant microdomains [3] | other results |
| --- | --- | --- | --- | --- |
| no effect |  | CCCCCCCCCCCCCCC(O)C(=O)O (stereo not shown) [2-hydroxypalmitate] |  |  |
|  | 55% | CCCCC/C=C\C/C=C\C/C=C\C/C=C\CCCC(=O)O [arachidonic acid] | 16% | effect on Fyn myristoylation (IC13 incorporation) ([2]; COS-1, 50 μM PUFA overnight): almost no effect |
| no effect |  | CCCCCC/C=C\CCCCCCCC(=O)O [palmitoleic acid] |  |  |
